IC50 and inhibition data for 26 compounds are collected here from patent EP4806894A1, “TNAP INHIBITORY COMPOUND AND USE THEREOF” (Rednvia Co., Ltd., priority 2023, dated 2025).

One assay concerns the target T1, TNAP (Homo sapiens, UniProt P05186).
T1 sequence (P05186 18-502 limits assumed): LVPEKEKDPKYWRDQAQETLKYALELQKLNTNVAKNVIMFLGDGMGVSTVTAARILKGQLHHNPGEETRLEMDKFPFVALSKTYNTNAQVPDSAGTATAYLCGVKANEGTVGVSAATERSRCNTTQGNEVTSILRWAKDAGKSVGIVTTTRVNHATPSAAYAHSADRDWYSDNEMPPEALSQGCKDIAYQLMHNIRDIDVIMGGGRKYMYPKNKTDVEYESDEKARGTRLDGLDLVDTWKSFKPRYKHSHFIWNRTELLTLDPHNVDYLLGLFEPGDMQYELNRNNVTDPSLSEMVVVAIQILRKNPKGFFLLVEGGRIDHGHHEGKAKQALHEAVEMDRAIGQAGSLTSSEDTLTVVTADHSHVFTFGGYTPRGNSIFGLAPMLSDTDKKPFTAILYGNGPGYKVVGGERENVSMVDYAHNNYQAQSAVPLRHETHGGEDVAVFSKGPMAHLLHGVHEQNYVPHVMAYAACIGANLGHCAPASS
Put plainly: TNAP inhibitory activity, colorimetric assay (alkaline phosphatase assay kit ab83369, pNPP substrate). The note with it: TNAP enzyme, 2 hours at room temperature, absorbance 405 nm. The format is biochemical.

In another assay the test system is saos-2 cells. Nature of the assay: Anticalcification efficacy in saos-2 cells (osteogenic medium, Alizarin Red staining). Type of assay: cell-based. The note with it: Homo sapiens, 168 h, test compound 1 µM, 7 days osteogenic medium, Alizarin Red absorbance 540 nm, read-out: calcification inhibition. An outline of the steps: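 Saos-2 cells at 80–90% confluence induced for 7 days in osteogenic medium (DMEM, 100 nM dexamethasone, 10 mM β-glycerophosphate, 0.05 mM ascorbic acid), compound (0.5, 1, 5, 10 […]) added with each medium change. Alizarin Red staining eluted with cetylpyridinium chloride, A540 read; inhibition taken against OM-only absorbance.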

Bounds are passed on as bounds.

What is called IC50 is the concentration that gives 50% inhibition. The low end stands for inhibition by little substance, the high end for a need for much substance. In general, inhibition refers to the change of the read-out against control, counted positive when it falls. Consider `COc1ccc(-c2cnn(C(C)c3nc(C(C)C)no3)c2)cc1S(=O)(=O)Nc1cnc2c(c1)C(=O)NCC2` (stereo not shown) [Example 69, 5-(1-(1-(3-isopropyl-1,2,4-oxadiazole-5-yl)ethyl)-1H-pyrazole-4-yl)-2-methoxy-N-(5-oxo-5,6,7,8-tetrahydro-1,6-naphthyridine-3-yl)benzenesulfonamide], for which the 50% inhibitory concentration (IC50) against TNAP was 0.1 to 1 µM. For the same compound, the inhibition at 1 µM with saos-2 cells was less than 0%.
For `COc1ccc(-c2ccc(CC(=O)O)cc2)cc1S(=O)(=O)Nc1cnc2c(c1)C(=O)NC2` [Example 28, 2-(4'-methoxy-3'-(N-(5-oxo-6,7-dihydro-5H-pyrrolo[3,4-b]pyridine-3-yl)sulfamoyl)-[1,1'-biphenyl]-4-yl)acetic acid], the IC50 at TNAP is 0.01 to 0.1 µM. Also, the inhibition at 1 µM in the assay on saos-2 cells was not below 50%.
The like results for `NCc1ccc(-c2cc3c(c(S(=O)(=O)Nc4cnc5c(c4)C(=O)NCC5)c2)OCC3)cc1` [Example 41, 5-(4-(aminomethyl)phenyl)-N-(5-oxo-5,6,7,8-tetrahydro-1,6-naphthyridine-3-yl)-2,3-dihydrobenzofuran-7-sulfonamide] were, in that order, not below 1 µM and less than 0%.
For `COc1ccc(OC)c(S(=O)(=O)Nc2cnc3c(c2)CN(C(=O)OC(C)(C)C)CC3)c1` [Example 89, tert-butyl 3-((2,5-dimethoxyphenyl)sulfonamido)-7,8-dihydro-1,6-naphthyridine-6(5H)-carboxylate], at TNAP, the IC50 was in the range of 0.01 to 0.1 µM. Moreover, the inhibition at 1 µM with saos-2 cells is not below 50%.
Compound `COc1ccc(-c2c(C)nn(C)c2C)cc1S(=O)(=O)Nc1cnc2c(c1)C(=O)NCC2` [Example 121, 2-methoxy-N-(5-oxo-5,6,7,8-tetrahydro-1,6-naphthyridine-3-yl)-5-(1,3,5-trimethyl-1H-pyrazole-4-yl)benzenesulfonamide] returned an IC50 against TNAP of 0.1 to 1 µM. In the assay with saos-2 cells, the inhibition at 1 µM is less than 0%.
`COc1ccc(-c2cc(F)c(O)c(F)c2)cc1S(=O)(=O)Nc1cnc2c(c1)C(=O)NCC2` [Example 46, 3',5'-difluoro-4'-hydroxy-4-methoxy-N-(5-oxo-5,6,7,8-tetrahydro-1,6-naphthyridine-3-yl)-[1,1'-biphenyl]-3-sulfonamide] showed an IC50 at TNAP of 0.1 to 1 µM. Also, the inhibition at 1 µM with saos-2 cells is not below 50%.
With `CCNC(=O)Cn1cc(-c2ccc(OC)c(S(=O)(=O)Nc3cnc4c(c3)C(=O)NCC4)c2)cn1` [Example 66, N-ethyl-2-(4-(4-methoxy-3-(N-(5-oxo-5,6,7,8-tetrahydro-1,6-naphthyridine-3-yl)sulfamoyl)phenyl)-1H-pyrazole-1-yl)acetamide], the IC50 against TNAP was not below 1 µM. Besides, the inhibition at 1 µM in the assay on saos-2 cells is less than 0%.
As to `COc1ccc(Br)cc1S(=O)(=O)Nc1cnc2c(c1)C(=O)NCCC2` [Example 14, 5-bromo-2-methoxy-N-(5-oxo-6,7,8,9-tetrahydro-5H-pyrido[3,2-c]azepine-3-yl)benzenesulfonamide], the IC50 against TNAP lay within 0.1 to 1 µM. The inhibition at 1 µM in the assay with saos-2 cells was not below 50%.
The like results for `COc1ccc(F)cc1S(=O)(=O)Nc1cnc2c(c1)CN(C(=O)NC(C)C)CC2` [Example 105, 3-((5-fluoro-2-methoxyphenyl)sulfonamido)-N-isopropyl-7,8-dihydro-1,6-naphthyridine-6(5H)-carboxamide] were, in that order, 0.01 to 0.1 µM and not below 50%.
`O=C1NCCc2ncc(NS(=O)(=O)c3cc(Br)cc4c3OCC4)cc21` [Example 10, 5-bromo-N-(5-oxo-5,6,7,8-tetrahydro-1,6-naphthyridine-3-yl)-2,3-dihydrobenzofuran-7-sulfonamide] displayed an IC50 at TNAP of 0.1 to 1 µM. For the same compound, the inhibition at 1 µM with saos-2 cells is not below 50%.
Turning to `O=C1NCCc2ncc(NS(=O)(=O)c3cc(-c4ccc(C5(C(=O)O)CC5)cc4)cc4c3OCC4)cc21` [Example 38, 1-(4-(7-(N-(5-oxo-5,6,7,8-tetrahydro-1,6-naphthyridine-3-yl)sulfamoyl)-2,3-dihydrobenzofuran-5-yl)phenyl)cyclopropane-1-carboxylic acid], on TNAP, the IC50 is not below 1 µM. Further, the inhibition at 1 µM in the assay on saos-2 cells was less than 0%.
`COc1ccc(-c2ccc(C3(C(=O)O)CC3)cc2)cc1S(=O)(=O)Nc1cnc2c(c1)C(=O)NCC2` [Example 32, 1-(4'-methoxy-3'-(N-(5-oxo-5,6,7,8-tetrahydro-1,6-naphthyridine-3-yl)sulfamoyl)-[1,1'-biphenyl]-4-yl)cyclopropane-1-carboxylic acid] had an IC50 against TNAP of 0.01 to 0.1 µM. For the same compound, in the assay with saos-2 cells, the inhibition at 1 µM is not below 50%.
As to `O=C1NCc2ncc(NS(=O)(=O)c3cc(Br)cc4c3OCC4)cc21` [Example 5, 5-bromo-N-(5-oxo-6,7-dihydro-5H-pyrrolo[3,4-b]pyridine-3-yl)-2,3-dihydrobenzofuran-7-sulfonamide], the IC50 on TNAP lay in the range of 0.1 to 1 µM. In the assay with saos-2 cells, the inhibition at 1 µM fell in the range of 0 to 50%.
The matching figures for `COc1ccc(-c2cnn(C(C)c3nc(C)no3)c2)cc1S(=O)(=O)Nc1cnc2c(c1)C(=O)NCC2` (stereo not shown) [Example 70, 2-methoxy-5-(1-(1-(3-methyl-1,2,4-oxadiazole-5-yl)ethyl)-1H-pyrazole-4-yl)-N-(5-oxo-5,6,7,8-tetrahydro-1,6-naphthyridine-3-yl)benzenesulfonamide]: 0.1 to 1 µM and not below 50%.
The compound `COc1ccc(Br)cc1S(=O)(=O)Nc1cnc2c(c1)CN(C(=O)CC(C)(C)C)CC2` [Example 119, 5-bromo-N-(6-(3,3-dimethylbutanoyl)-5,6,7,8-tetrahydro-1,6-naphthyridine-3-yl)-2-methoxybenzenesulfonamide] returned an IC50 against TNAP of 0.01 to 0.1 µM. Besides, in the assay on saos-2 cells, the inhibition at 1 µM is not below 50%.
Compound `COc1ccc(-c2cnn(CC(=O)O)c2)cc1S(=O)(=O)Nc1cnc2c(c1)C(=O)NCC2` [Example 48, 2-(4-(4-methoxy-3-(N-(5-oxo-5,6,7,8-tetrahydro-1,6-naphthyridine-3-yl)sulfamoyl)phenyl)-1H-pyrazole-1-yl)acetic acid] yielded an IC50 against TNAP of 0.01 to 0.1 µM. The inhibition at 1 µM in the assay on saos-2 cells was not below 50%.
Consider `COc1ccc(-c2c(C)noc2C)cc1S(=O)(=O)Nc1cnc2c(c1)C(=O)NCC2` [Example 84, 5-(3,5-dimethylisoxazole-4-yl)-2-methoxy-N-(5-oxo-5,6,7,8-tetrahydro-1,6-naphthyridine-3-yl)benzenesulfonamide], for which the IC50 against TNAP lay in the range of 0.01 to 0.1 µM. The inhibition at 1 µM with saos-2 cells is not below 50%.
Consider `COc1ccc(Br)cc1S(=O)(=O)Nc1cnc2c(c1)CN(C(=O)OC(C)(C)C)CC2` [Example 88, tert-butyl 3-((5-bromo-2-methoxyphenyl)sulfonamido)-7,8-dihydro-1,6-naphthyridine-6(5H)-carboxylate], for which, on TNAP, the 50% inhibitory concentration (IC50) fell in the range of 0.1 to 1 µM. Moreover, the inhibition at 1 µM with saos-2 cells was not below 50%.
As to `COc1ccc(Cl)cc1S(=O)(=O)Nc1cnc2c(c1)CN(C(=O)OCCF)CC2` [Example 101, 2-fluoroethyl-3-((5-chloro-2-methoxyphenyl)sulfonamido)-7,8-dihydro-1,6-naphthyridine-6(5H)-carboxylate], the half-maximal inhibitory concentration (IC50) against TNAP fell in the range of 0.01 to 0.1 µM. Besides, the inhibition at 1 µM with saos-2 cells is less than 0%.
As to `O=C1NCc2ncc(NS(=O)(=O)c3cc(F)ccc3Br)cc21` [Example 11, 2-bromo-5-fluoro-N-(5-oxo-6,7-dihydro-5H-pyrrolo[3,4-b]pyridine-3-yl)benzenesulfonamide], the 50% inhibitory concentration (IC50) against TNAP is not below 1 µM. Further, the inhibition at 1 µM in the assay with saos-2 cells was not below 50%.
As to `COc1ccc(-c2cnn(C(F)(F)F)c2)cc1S(=O)(=O)Nc1cnc2c(c1)C(=O)NCC2` [Example 73, 2-methoxy-N-(5-oxo-5,6,7,8-tetrahydro-1,6-naphthyridine-3-yl)-5-(1-(trifluoromethyl)-1H-pyrazole-4-yl)benzenesulfonamide], the IC50 against TNAP was 0.1 to 1 µM. Besides, in the assay on saos-2 cells, the inhibition at 1 µM was not below 50%.
`O=C1NCCc2ncc(NS(=O)(=O)c3cccc4c3OCC4)cc21` [Example 19, N-(5-oxo-5,6,7,8-tetrahydro-1,6-naphthyridine-3-yl)-2,3-dihydrobenzofuran-7-sulfonamide]: at TNAP, the IC50 is not below 1 µM. Also, the inhibition at 1 µM in the assay on saos-2 cells was less than 0%.
Consider `COc1ccc(C2=CCC(F)(F)CC2)cc1S(=O)(=O)Nc1cnc2c(c1)C(=O)NCC2` [Example 64, 4',4'-difluoro-4-methoxy-N-(5-oxo-5,6,7,8-tetrahydro-1,6-naphthyridine-3-yl)-2',3',4',5'-tetrahydro-[1,1'-biphenyl]-3-sulfonamide], for which the 50% inhibitory concentration (IC50) against TNAP was not below 1 µM. The inhibition at 1 µM in the assay with saos-2 cells is less than 0%.
Regarding `COc1ccc(Cl)cc1S(=O)(=O)Nc1cnc2c(c1)CN(C(=O)OCC(C)(C)C)CC2` [Example 98, neopentyl3-((5-chloro-2-methoxyphenyl)sulfonamido)-7,8-dihydro-1,6-naphthyridine-6(5H)-carboxylate], the IC50 on TNAP is 0.1 to 1 µM. Also, the inhibition at 1 µM with saos-2 cells is not below 50%.
`CCOC(=O)N1CCc2ncc(NS(=O)(=O)c3cc(F)ccc3OC)cc2C1` [Example 95, ethyl3-((5-fluoro-2-methoxyphenyl)sulfonamido)-7,8-dihydro-1,6-naphthyridine-6(5H)-carboxylate] yielded a half-inhibitory concentration (IC50) against TNAP of 0.1 to 1 µM. Moreover, in the assay with saos-2 cells, the inhibition at 1 µM was not below 50%.
`O=C1NCCc2ncc(NS(=O)(=O)c3cc(F)ccc3Br)cc21` [Example 56, 2-bromo-5-fluoro-N-(5-oxo-5,6,7,8-tetrahydro-1,6-naphthyridine-3-yl)benzenesulfonamide] gave an IC50 against TNAP of 0.1 to 1 µM. Besides, the inhibition at 1 µM in the assay with saos-2 cells is not below 50%.
